# Assay results reported in PubChem BioAssay (NCI).
#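 48-hour exposure; five concentrations; linearly interpolated endpoints. GI50 = concentration required for 50% inhibition of growth. TGI: total growth inhibition.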
# Test system: 786-0 renal
# Experiment: NCI tumour cell line growth inhibition, 48 h
SMILES,TGI,GI50
CC(C)CCNC(=O)c1ccc(CNC(=O)/C=C/c2ccc(OCc3ccccc3)cc2)cc1,> 100 µM,
COc1ccccc1NC(=O)c1ccc(/C=C/C(=O)c2nccn2C)cc1,1.34 µM,0.542 µM
O=C1c2ccccc2C(=O)c2c1ccc1[nH]c(CCl)nc21,9.38 µM,2.91 µM
O=[n+]1c(CBr)c(CBr)n([O-])c2ccccc21,25.7 µM,11.9 µM

# Test system: A498 renal
# Experiment: NCI tumour cell line growth inhibition, 48 h
SMILES,TGI,GI50
CC(C)CCNC(=O)c1ccc(CNC(=O)/C=C/c2ccc(OCc3ccccc3)cc2)cc1,> 100 µM,
COc1ccccc1NC(=O)c1ccc(/C=C/C(=O)c2nccn2C)cc1,1.49 µM,0.555 µM
O=C1c2ccccc2C(=O)c2c1ccc1[nH]c(CCl)nc21,7.06 µM,1.27 µM
O=[n+]1c(CBr)c(CBr)n([O-])c2ccccc21,> 100 µM,41.3 µM

# Test system: A549 NSCLC
# Experiment: NCI tumour cell line growth inhibition, 48 h
SMILES,TGI,GI50
CC(C)CCNC(=O)c1ccc(CNC(=O)/C=C/c2ccc(OCc3ccccc3)cc2)cc1,> 100 µM,
COc1ccccc1NC(=O)c1ccc(/C=C/C(=O)c2nccn2C)cc1,8.75 µM,0.74 µM
O=C1c2ccccc2C(=O)c2c1ccc1[nH]c(CCl)nc21,10.2 µM,2.81 µM
O=[n+]1c(CBr)c(CBr)n([O-])c2ccccc21,35.6 µM,17.4 µM

# Test system: ACHN renal
# Experiment: NCI tumour cell line growth inhibition, 48 h
SMILES,TGI,GI50
CC(C)CCNC(=O)c1ccc(CNC(=O)/C=C/c2ccc(OCc3ccccc3)cc2)cc1,> 100 µM,
COc1ccccc1NC(=O)c1ccc(/C=C/C(=O)c2nccn2C)cc1,1.09 µM,0.532 µM
O=C1c2ccccc2C(=O)c2c1ccc1[nH]c(CCl)nc21,6.49 µM,2.27 µM
O=[n+]1c(CBr)c(CBr)n([O-])c2ccccc21,3.18 µM,1.76 µM

# Test system: BT-549 breast
# Experiment: NCI tumour cell line growth inhibition, 48 h
SMILES,GI50,TGI
COc1ccccc1NC(=O)c1ccc(/C=C/C(=O)c2nccn2C)cc1,0.509 µM,1.19 µM
O=C1c2ccccc2C(=O)c2c1ccc1[nH]c(CCl)nc21,3.52 µM,12.7 µM
O=[n+]1c(CBr)c(CBr)n([O-])c2ccccc21,1.85 µM,5.13 µM

# Test system: CAKI-1 renal
# Experiment: NCI tumour cell line growth inhibition, 48 h
SMILES,TGI,GI50
CC(C)CCNC(=O)c1ccc(CNC(=O)/C=C/c2ccc(OCc3ccccc3)cc2)cc1,> 100 µM,
COc1ccccc1NC(=O)c1ccc(/C=C/C(=O)c2nccn2C)cc1,1.32 µM,0.453 µM
O=C1c2ccccc2C(=O)c2c1ccc1[nH]c(CCl)nc21,9.89 µM,2.61 µM
O=[n+]1c(CBr)c(CBr)n([O-])c2ccccc21,24.5 µM,12 µM

# Test system: CCRF-CEM leukemia
# Experiment: NCI tumour cell line growth inhibition, 48 h
SMILES,TGI,GI50
CC(C)CCNC(=O)c1ccc(CNC(=O)/C=C/c2ccc(OCc3ccccc3)cc2)cc1,> 100 µM,
COc1ccccc1NC(=O)c1ccc(/C=C/C(=O)c2nccn2C)cc1,8.01 µM,0.669 µM
O=C1c2ccccc2C(=O)c2c1ccc1[nH]c(CCl)nc21,6.42 µM,2.19 µM
O=[n+]1c(CBr)c(CBr)n([O-])c2ccccc21,14.2 µM,2.79 µM

# Test system: COLO 205 colon
# Experiment: NCI tumour cell line growth inhibition, 48 h
SMILES,TGI,GI50
CC(C)CCNC(=O)c1ccc(CNC(=O)/C=C/c2ccc(OCc3ccccc3)cc2)cc1,> 100 µM,
COc1ccccc1NC(=O)c1ccc(/C=C/C(=O)c2nccn2C)cc1,1.29 µM,0.552 µM
O=C1c2ccccc2C(=O)c2c1ccc1[nH]c(CCl)nc21,8.62 µM,2.54 µM
O=[n+]1c(CBr)c(CBr)n([O-])c2ccccc21,3.99 µM,2.04 µM

# Test system: DU-145 prostate
# Experiment: NCI tumour cell line growth inhibition, 48 h
SMILES,TGI,GI50
CC(C)CCNC(=O)c1ccc(CNC(=O)/C=C/c2ccc(OCc3ccccc3)cc2)cc1,> 100 µM,
COc1ccccc1NC(=O)c1ccc(/C=C/C(=O)c2nccn2C)cc1,1.09 µM,0.504 µM
O=C1c2ccccc2C(=O)c2c1ccc1[nH]c(CCl)nc21,14.5 µM,4.27 µM
O=[n+]1c(CBr)c(CBr)n([O-])c2ccccc21,18.4 µM,5.8 µM

# Test system: EKVX NSCLC
# Experiment: NCI tumour cell line growth inhibition, 48 h
SMILES,GI50,TGI
COc1ccccc1NC(=O)c1ccc(/C=C/C(=O)c2nccn2C)cc1,0.591 µM,1.89 µM
O=C1c2ccccc2C(=O)c2c1ccc1[nH]c(CCl)nc21,2.59 µM,10.7 µM
O=[n+]1c(CBr)c(CBr)n([O-])c2ccccc21,15.3 µM,29 µM

# Test system: HCC-2998 colon
# Experiment: NCI tumour cell line growth inhibition, 48 h
SMILES,TGI,GI50
CC(C)CCNC(=O)c1ccc(CNC(=O)/C=C/c2ccc(OCc3ccccc3)cc2)cc1,> 100 µM,
COc1ccccc1NC(=O)c1ccc(/C=C/C(=O)c2nccn2C)cc1,0.912 µM,0.487 µM
O=C1c2ccccc2C(=O)c2c1ccc1[nH]c(CCl)nc21,12.7 µM,3.41 µM
O=[n+]1c(CBr)c(CBr)n([O-])c2ccccc21,31 µM,16.9 µM

# Test system: HCT-116 colon
# Experiment: NCI tumour cell line growth inhibition, 48 h
SMILES,TGI,GI50
CC(C)CCNC(=O)c1ccc(CNC(=O)/C=C/c2ccc(OCc3ccccc3)cc2)cc1,> 100 µM,
COc1ccccc1NC(=O)c1ccc(/C=C/C(=O)c2nccn2C)cc1,0.89 µM,0.408 µM
O=C1c2ccccc2C(=O)c2c1ccc1[nH]c(CCl)nc21,4.7 µM,1.85 µM
O=[n+]1c(CBr)c(CBr)n([O-])c2ccccc21,14.5 µM,3.94 µM

# Test system: HCT-15 colon
# Experiment: NCI tumour cell line growth inhibition, 48 h
SMILES,TGI,GI50
CC(C)CCNC(=O)c1ccc(CNC(=O)/C=C/c2ccc(OCc3ccccc3)cc2)cc1,> 100 µM,
COc1ccccc1NC(=O)c1ccc(/C=C/C(=O)c2nccn2C)cc1,0.843 µM,0.363 µM
O=C1c2ccccc2C(=O)c2c1ccc1[nH]c(CCl)nc21,3.1 µM,1.45 µM
O=[n+]1c(CBr)c(CBr)n([O-])c2ccccc21,3.48 µM,1.82 µM

# Test system: HL-60(TB) leukemia
# Experiment: NCI tumour cell line growth inhibition, 48 h
SMILES,GI50,TGI
COc1ccccc1NC(=O)c1ccc(/C=C/C(=O)c2nccn2C)cc1,0.547 µM,1.41 µM
O=C1c2ccccc2C(=O)c2c1ccc1[nH]c(CCl)nc21,2.64 µM,7 µM
O=[n+]1c(CBr)c(CBr)n([O-])c2ccccc21,2.26 µM,5.8 µM

# Test system: HOP-62 NSCLC
# Experiment: NCI tumour cell line growth inhibition, 48 h
SMILES,TGI,GI50
CC(C)CCNC(=O)c1ccc(CNC(=O)/C=C/c2ccc(OCc3ccccc3)cc2)cc1,> 100 µM,
COc1ccccc1NC(=O)c1ccc(/C=C/C(=O)c2nccn2C)cc1,2.37 µM,0.762 µM
O=C1c2ccccc2C(=O)c2c1ccc1[nH]c(CCl)nc21,9.42 µM,3.12 µM
